These results are taken from patent US8975279B2, “Amine salts of laquinimod” (Teva Pharmaceutical Industries, Ltd., priority 2012, dated 2015).

Data set [1] in a line: Physical stability in glass vials at +5° C., air atmosphere. The following applies: for Sample appearance: glass vials, air atmosphere. The class given is physicochemical.
The conditions of data set [2]: cited from earlier work.
Data set [3] in a line: Physical stability on exposure to atmospheric air at room temperature. In kind it is physicochemical. The following applies: RH=25-30%, T=18-20° C.
Data set [4] can be described thus: Aqueous solubility of laquinimod and its salts. In kind it is physicochemical. As to conditions: for Aqueous solubility: water.
Where [5] appears, read: sealed transparent glass vials at +5° C. for 6 months.
Where [6] appears, read: +5° C., after 7 months of storage.
[7] abbreviates: sealed transparent glass vials at +5° C. for 3 months.
Setting [8] is: +5° C., after 9 months of storage.

In brackets after ≈: the same amount, converted by molar mass. Several values for one entry are separate records, joined by “and”; a condition that tells them apart may be missing. Equal values may be shown once. Where a name gives a salt, the structure may show the parent alone. Read-outs that look alike come from different tables or passages of the source. Marks after values point to notes of the source that are not given here.

Regarding `CCN(C(=O)c1c(O)c2c(Cl)cccc2n(C)c1=O)c1ccccc1` [Batch 6, laquinimod choline hydroxide], the “Physical stability (physical change)” value in data set [1] (+5° C., after 5 months) was “developed color and deliquescence occurred”; in data set [1] (setting [5]) it was “Physical change was observed”. Further, the Sample appearance result in data set [1] (+5° C., 6 months) is given as “yellowish semi-solid with signs of deliquescence”; in data set [1] (+5° C., time 0 month) it was “White glassy solid”.
Take `NCCO.Oc1cc(Cl)ccc1Oc1ccc(Cl)cc1Cl` [Monoethanolamine salt of triclosan]: the solubility in data set [2] (pH not given) was 5.84 mg/mL.
Turning to `CNCC(O)C(O)C(O)C(O)CO.Oc1cc(Cl)ccc1Oc1ccc(Cl)cc1Cl` [Triclosan meglumine salt], in data set [2] (pH not given), the solubility is 12.43 mg/mL.
Consider `CCN(C(=O)c1c(O)c2c(Cl)cccc2n(C)c1=O)c1ccccc1` [Batch 14, laquinimod monoethanolamine], for which the entries for the “Physical stability (physical change)” value in data set [1] (setting [6]) and in data set [1] (setting [7]) were “no sign of physical change” and “No physical change was observed”, respectively. For the same compound, the Sample appearance result in data set [1] (+5° C., 3 months) is “white powder”. Also, the figures for the Physical stability result in data set [3] (4 hours) and in data set [3] (16 hours) were “no change” and “aggregated white powder”, respectively.
For the compound `CCN(C(=O)c1c(O)c2c(Cl)cccc2n(C)c1=O)c1ccccc1` [Batch 3, laquinimod meglumine], the “Physical stability (physical change)” value in data set [1] (+5° C., after 5 months) was “physical change was observed”; in data set [1] (setting [5]), “Physical change was observed”. Further, the Sample appearance result in data set [1] (+5° C., 6 months) is listed as “lumped white powder, with signs of deliquescence”.
`CCN(C(=O)c1c(O)c2c(Cl)cccc2n(C)c1=O)c1ccccc1` [laquinimod monoethanolamine]: in data set [4] (depends on preparation method and form, listed as Laquinimod monoethanoloamine salt), the Aqueous solubility is 625 mg/mL and 1176 mg/mL.
Turning to `CCN(C(=O)c1c(O)c2c(Cl)cccc2n(C)c1=O)c1ccccc1` [Batch 9, laquinimod L-lysine], the “Physical stability (physical change)” value in data set [1] (setting [8]) is listed as “no sign of physical change”; in data set [1] (setting [5]) it was “No physical change was observed”. The Sample appearance result was “White flowable powder” in data set [1] (+5° C., 5 months); “white flowable powder” in data set [1] (+5° C., 6 months); “White flowable powder” in data set [1] (+5° C., 9 months); “White flowable powder” in data set [1] (+5° C., time 0 month). For the same compound, the Aqueous solubility in data set [4] came to 1176 mg/ml H2O; in data set [4] (depends on preparation method and form, listed as 3.1) it was 1176 mg/mL.
For `CCN(C(=O)c1c(O)c2c(Cl)cccc2n(C)c1=O)c1ccccc1` [Batch 10, laquinimod L-lysine], the figures for the “Physical stability (physical change)” value in data set [1] (setting [8]) and in data set [1] (setting [5]) were “no sign of physical change” and “No physical change was observed”, respectively. Also, the Sample appearance result in data set [1] (+5° C., 5 months) is “White flowable powder”; in data set [1] (+5° C., 6 months), “white powder”; in data set [1] (+5° C., 9 months), “White flowable powder”; in data set [1] (+5° C., time 0 month), “White flowable powder”. Besides, the Aqueous solubility was found to be 1000 mg/ml H2O in data set [4]; 1000 mg/mL in data set [4] (depends on preparation method and form, listed as 3.2).
As to `CCN(C(=O)c1c(O)c2c(Cl)cccc2n(C)c1=O)c1ccccc1` [Batch 12, laquinimod monoethanolamine], in data set [1] (+5° C., 3 months), the Sample appearance result is on record as “yellowish aggregated powder”. In addition, the “Physical stability (overall)” value in data set [1] (refrigerator, atmospheric air, overall statement) is listed as “less stable”. The “Physical stability (physical change)” value in data set [1] (setting [7]) was “Physical change was observed”. Besides, the Physical stability entry is on record as “no change” in data set [3] (4 hours) and “yellowish aggregated powder” in data set [3] (24 hours).
For `CCN(C(=O)c1c(O)c2c(Cl)cccc2n(C)c1=O)c1ccccc1` [laquinimod L-lysine], in data set [4] (depends on preparation method and form, listed as L-lysine laquinimod salt), the Aqueous solubility was 1000 mg/mL and 1176 mg/mL.
Regarding `CN1C(C(=O)Nc2ccccn2)=C(O)c2ccccc2S1(=O)=O` [free piroxicam, piroxicam], the solubility in data set [2] (pH 7.4, unit not given) is 0.17.
As to `CCN(C(=O)c1c(O)c2c(Cl)cccc2n(C)c1=O)c1ccccc1` [Batch 4, laquinimod meglumine], the “Physical stability (physical change)” value is “no sign of physical change” in data set [1] (+5° C., after 10 months of storage) and “No physical change was observed” in data set [1] (setting [5]). For the same compound, the Sample appearance entry in data set [1] (+5° C., 6 months) was “white powder with no signs of deliquescence”. Further, the Aqueous solubility was determined as 1050 mg/ml H2O in data set [4]; 1050 mg/mL in data set [4] (depends on preparation method and form, listed as 1.4).
Regarding `CCN(C(=O)c1c(O)c2c(Cl)cccc2n(C)c1=O)c1ccccc1` [laquinimod choline hydroxide], the “solubility relative to the sodium salt” value in data set [4] (laquinimod choline hydroxide salt vs laquinimod sodium) is on record as “over 14 times”. Moreover, the Aqueous solubility in data set [4] (depends on preparation method and form, listed as choline hydroxide salt of laquinimod) is 2000 mg/mL and 2100 mg/mL.
In the case of `CCN(C(=O)c1c(O)c2c(Cl)cccc2n(C)c1=O)c1ccccc1` [laquinimod meglumine], the Aqueous solubility in data set [4] (depends on preparation method and form, listed as meglumine laquinimod salt) was 1050 mg/mL and 1330 mg/mL.
For `CN1C(C(=O)Nc2ccccn2)=C(O)c2ccccc2S1(=O)=O.NCCO` [monoethanolamine salt of piroxicam], the solubility in data set [2] (pH 7.4) was 126.2 mg/mL.
In the case of `CCN(C(=O)c1c(O)c2c(Cl)cccc2n(C)c1=O)c1ccccc1` [Batch 8, laquinimod choline hydroxide], the “Physical stability (physical change)” value in data set [1] (setting [8]) is recorded as “no sign of physical change”; in data set [1] (setting [5]) it was “No physical change was observed”. Besides, the Sample appearance result in data set [1] (+5° C., 5 months) was “White powder”; in data set [1] (+5° C., 6 months) it was “white powder with no signs of deliquescence”; in data set [1] (+5° C., 9 months) it was “White powder”; in data set [1] (+5° C., time 0 month), “White powder”. Moreover, the Aqueous solubility is given as 2000 mg/ml H2O in data set [4]; >2000** mg/ml in data set [4] (depends on preparation method and form, listed as 2.4).
Turning to `Cc1cnc(NC(=O)C2=C(O)c3ccccc3S(=O)(=O)N2C)s1` [free meloxicam, meloxicam], the solubility in data set [2] (pH 7.4) was 0.74 mg/mL (≈ 2110 µM).
Regarding `CC(C)Cc1ccc(C(C)C(=O)[O-])cc1.[Na+]` (stereo not shown) [ibuprofen sodium salt], the solubility in data set [2] (pH not given) is 100 mg/mL.
Take `CCN(C(=O)c1c(O)c2c(Cl)cccc2n(C)c1=O)c1ccccc1` [Batch 7, laquinimod choline hydroxide]: the “Physical stability (physical change)” value in data set [1] (setting [8]) is “no sign of physical change”; in data set [1] (setting [5]) it was “No physical change was observed”. Moreover, the Sample appearance result is “White powder” in data set [1] (+5° C., 5 months); “white powder with no signs of deliquescence” in data set [1] (+5° C., 6 months); “White powder” in data set [1] (+5° C., 9 months); “White powder” in data set [1] (+5° C., time 0 month). The Aqueous solubility is on record as over 2100 mg/ml H2O in data set [4]; >2100** mg/ml in data set [4] (depends on preparation method and form, listed as 2.3).
For the compound `Cc1cnc(NC(=O)C2=C(O)c3ccccc3S(=O)(=O)N2C)s1` [meloxicam sodium salt], in data set [2] (pH 8.06), the Aqueous solubility is 2.0 mg/mL.
As for `CNC[C@H](O)[C@@H](O)[C@H](O)[C@H](O)CO.Cc1cnc(NC(=O)C2=C(O)c3ccccc3S(=O)(=O)N2C)s1` [meglumine salt of meloxicam], in data set [2] (pH 8.57), the Aqueous solubility was 2.3 mg/mL.
Regarding `CCN(C(=O)c1c(O)c2c(Cl)cccc2n(C)c1=O)c1ccccc1` [Batch 13, laquinimod monoethanolamine], the “Physical stability (physical change)” value in data set [1] (setting [6]) was “slight aggregation was developed”. Besides, the Sample appearance entry in data set [1] (+5° C., 3 months) was “off-white powder”; in data set [1] (+5° C., time 0 month), “White powder”. Besides, the Aqueous solubility in data set [4] is 1176 mg/ml H2O; in data set [4] (depends on preparation method and form, listed as 4.2), 1176 mg/mL.
Take `C[N+](C)(C)CCO.O=C([O-])c1ccccc1O` [choline salicylate salt, choline salicylate]: the “solubility (in words)” value in data set [2] is reported as “insoluble”.
